Laboratory results as given in US20140158116A1, “INHIBITING TRPA1 FOR THE TREATMENT OF ASTHMA” (Cubist Pharmaceuticals, Inc., priority 2012, published 2014).

Assays:
hNaV1.2 = hNaV1.2 (Homo sapiens, UniProt Q99250); assay: Patch clamp selectivity, hNaV1.2; format: cell-based
Protocol: Data for TRPA1 inhibition and the selectivity of TRPA1 inhibition was obtained by this method for the compound of Formula (Ia) and included in Table 1 and Table 2. All currents were recorded in whole-cell configuration using EPC-9 and EPC-10 amplifiers and Patchmaster software (HEKA). […] The standard pipette solution consisted of 140 mM CsAsp, 10 mM EGTA, 10 mM HEPES, 2.27 mM MgCl2, 1.91 mM CaCl2, 4 mM MgATP, and 0.1-0.3 mM Na2GTP, with pH adjusted to 7.2 with CsOH. In addition, a solution containing 145 mM CsCl, 10 mM HEPES, 10 mM EGTA and 1 mM MgCl2 (pH 7.2 adjusted with CsOH) can be used. The standard bath solution contained 150 mM NaCl, 10 mM HEPES, 10 mM glucose, 4.5 mM KCl, 1 mM EGTA, 3 mM MgCl2, with pH adjusted to 7.4 with NaOH. In some instances, 2 mM CaCl2 was added in place of EGTA and the concentration of MgCl2 was reduced to 1 mM.
Data were collected either by continuous recordings at −60 mV or by applying voltage ramps from a holding potential of 0 mV every 4 s. […] Inward and outward currents were analyzed from the ramps at −80 and 80 mV, respectively. […]
Solutions were switched using a gravity-fed continuous focal perfusion system. […] Temperatures were confirmed using a thermistor (Warner Instruments, TA-29), with temperatures at the recorded cell estimated to be within +/−2° C. of those reported. […]

[1] = system: airway hyper-responsiveness to Carbachol; assay: Sheep allergic asthma model, airway hyper-responsiveness (PC400) to Carbachol; format: in vivo; details: 24 hour post-challenge Carbachol
Protocol: Compounds were tested in the sheep model of experimental asthma reported in Abraham W M, Asthma & Rhinitis, 2000: 1205-1227 incorporated herein by reference in its entirety.
The unsedated sheep were restrained in a cart in the prone position with their heads immobilized. After topical anesthesia of the nasal passages with 2% lidocaine solution, a balloon catheter was advanced through one nostril into the lower esophagus. The sheep were intubated with a cuffed endotracheal tube through the other nostril. Pleural pressure was estimated with the esophageal balloon catheter. Lateral pressure in the trachea was measured with a sidehole catheter (inner dimension, 2.5 mm) advanced through and positioned distal to the tip of the endotracheal tube. Transpulmonary pressure, the difference between tracheal and pleural pressure, was measured with a differential pressure transducer catheter system. For the measurement of pulmonary resistance (RL), the proximal end of the endotracheal tube was connected to a pneumotachograph. […]
Baseline concentration response curves to aerosol Carbachol were obtained 1 to 3 days before commencement of drug/vehicle treatment. […] Baseline values of pulmonary resistance (RL) were obtained within 30 minutes of treatment and then re-measured 30 minutes before antigen challenge. […]

hTRPA1 = hTRPA1 (Homo sapiens, UniProt O75762); assay: hTrpA1 IC50 measured in 1% RSA (rat serum albumin); format: cell-based
Chain of hTRPA1 (O75762 whole entry): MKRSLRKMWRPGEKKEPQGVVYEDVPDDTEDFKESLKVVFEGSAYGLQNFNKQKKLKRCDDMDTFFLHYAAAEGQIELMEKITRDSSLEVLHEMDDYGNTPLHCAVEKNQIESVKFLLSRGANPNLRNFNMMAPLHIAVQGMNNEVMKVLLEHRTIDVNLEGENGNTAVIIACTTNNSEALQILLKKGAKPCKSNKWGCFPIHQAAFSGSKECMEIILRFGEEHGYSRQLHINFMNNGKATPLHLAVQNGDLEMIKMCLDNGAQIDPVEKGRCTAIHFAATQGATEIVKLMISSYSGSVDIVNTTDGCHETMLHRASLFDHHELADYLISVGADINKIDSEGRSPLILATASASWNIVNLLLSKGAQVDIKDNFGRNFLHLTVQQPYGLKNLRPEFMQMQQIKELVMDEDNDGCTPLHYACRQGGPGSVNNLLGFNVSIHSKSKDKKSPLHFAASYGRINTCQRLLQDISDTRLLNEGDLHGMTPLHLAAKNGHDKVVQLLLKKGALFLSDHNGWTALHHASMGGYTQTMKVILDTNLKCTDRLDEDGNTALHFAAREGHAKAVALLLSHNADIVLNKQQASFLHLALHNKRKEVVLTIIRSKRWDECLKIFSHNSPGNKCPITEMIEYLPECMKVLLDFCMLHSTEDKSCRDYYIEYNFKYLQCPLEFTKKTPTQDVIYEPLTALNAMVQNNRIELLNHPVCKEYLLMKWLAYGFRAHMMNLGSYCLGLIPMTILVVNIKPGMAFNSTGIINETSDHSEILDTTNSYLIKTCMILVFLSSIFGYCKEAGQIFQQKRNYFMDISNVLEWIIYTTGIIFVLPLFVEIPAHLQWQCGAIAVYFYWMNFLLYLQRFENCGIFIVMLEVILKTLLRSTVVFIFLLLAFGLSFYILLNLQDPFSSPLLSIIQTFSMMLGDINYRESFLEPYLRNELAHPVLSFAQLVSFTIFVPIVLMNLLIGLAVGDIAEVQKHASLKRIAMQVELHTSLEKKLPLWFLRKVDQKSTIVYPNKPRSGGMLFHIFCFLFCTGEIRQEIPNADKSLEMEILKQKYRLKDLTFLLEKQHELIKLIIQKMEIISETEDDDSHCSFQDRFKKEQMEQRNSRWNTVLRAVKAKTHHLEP

Chain of hNaV1.2 (Q99250 whole entry): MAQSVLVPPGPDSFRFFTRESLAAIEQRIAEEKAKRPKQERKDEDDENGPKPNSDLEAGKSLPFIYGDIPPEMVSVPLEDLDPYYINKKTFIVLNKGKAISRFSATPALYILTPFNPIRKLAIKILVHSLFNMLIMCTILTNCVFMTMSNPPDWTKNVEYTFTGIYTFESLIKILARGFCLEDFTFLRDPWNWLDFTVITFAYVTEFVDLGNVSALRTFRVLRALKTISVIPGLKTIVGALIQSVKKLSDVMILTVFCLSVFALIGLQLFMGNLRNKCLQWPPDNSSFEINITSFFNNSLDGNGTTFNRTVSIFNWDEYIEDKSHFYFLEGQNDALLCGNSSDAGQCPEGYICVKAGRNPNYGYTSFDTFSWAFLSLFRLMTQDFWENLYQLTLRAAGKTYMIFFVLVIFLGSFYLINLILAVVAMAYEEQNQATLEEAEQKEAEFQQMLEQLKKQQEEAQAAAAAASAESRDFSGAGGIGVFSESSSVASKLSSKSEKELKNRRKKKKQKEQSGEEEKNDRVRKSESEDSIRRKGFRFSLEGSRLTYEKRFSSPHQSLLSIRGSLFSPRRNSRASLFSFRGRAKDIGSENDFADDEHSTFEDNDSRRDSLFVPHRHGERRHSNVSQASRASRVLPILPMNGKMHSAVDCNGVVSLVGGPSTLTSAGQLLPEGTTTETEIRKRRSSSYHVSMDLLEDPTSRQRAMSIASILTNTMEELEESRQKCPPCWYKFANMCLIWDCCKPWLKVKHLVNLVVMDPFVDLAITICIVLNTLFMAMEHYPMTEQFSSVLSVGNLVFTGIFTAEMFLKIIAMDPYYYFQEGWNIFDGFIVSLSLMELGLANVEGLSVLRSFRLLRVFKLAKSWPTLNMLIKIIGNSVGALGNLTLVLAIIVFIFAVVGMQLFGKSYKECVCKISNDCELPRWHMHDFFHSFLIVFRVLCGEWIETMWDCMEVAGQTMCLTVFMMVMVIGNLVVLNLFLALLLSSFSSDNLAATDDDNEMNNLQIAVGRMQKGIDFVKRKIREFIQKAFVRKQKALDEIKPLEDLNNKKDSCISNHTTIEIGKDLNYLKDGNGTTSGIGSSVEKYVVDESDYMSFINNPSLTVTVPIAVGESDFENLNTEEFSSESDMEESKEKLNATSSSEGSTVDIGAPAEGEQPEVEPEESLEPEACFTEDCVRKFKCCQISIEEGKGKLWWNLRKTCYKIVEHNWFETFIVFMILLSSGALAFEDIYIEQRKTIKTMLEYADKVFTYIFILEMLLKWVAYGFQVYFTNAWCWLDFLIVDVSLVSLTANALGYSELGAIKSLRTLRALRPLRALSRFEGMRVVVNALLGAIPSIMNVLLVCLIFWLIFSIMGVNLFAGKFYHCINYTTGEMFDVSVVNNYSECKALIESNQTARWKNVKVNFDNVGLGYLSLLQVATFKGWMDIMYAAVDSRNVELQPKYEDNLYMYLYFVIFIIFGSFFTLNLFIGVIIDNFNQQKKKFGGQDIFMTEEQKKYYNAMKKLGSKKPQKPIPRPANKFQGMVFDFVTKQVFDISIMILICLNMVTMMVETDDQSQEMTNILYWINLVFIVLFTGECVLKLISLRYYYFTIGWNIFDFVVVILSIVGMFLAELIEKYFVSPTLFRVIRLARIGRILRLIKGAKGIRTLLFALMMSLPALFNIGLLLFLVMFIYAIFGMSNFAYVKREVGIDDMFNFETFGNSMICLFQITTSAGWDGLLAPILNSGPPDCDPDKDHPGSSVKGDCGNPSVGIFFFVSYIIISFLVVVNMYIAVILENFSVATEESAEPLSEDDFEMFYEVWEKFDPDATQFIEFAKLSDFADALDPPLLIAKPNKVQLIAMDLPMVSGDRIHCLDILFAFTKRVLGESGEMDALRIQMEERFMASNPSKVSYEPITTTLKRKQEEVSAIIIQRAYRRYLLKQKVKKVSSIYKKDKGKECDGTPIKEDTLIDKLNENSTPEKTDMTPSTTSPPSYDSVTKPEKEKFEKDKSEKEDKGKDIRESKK

SMILES: C[C@H]1CCCN1c1ncc(-c2cccc(NC(=O)Cn3cnc4c3c(=O)n(C)c(=O)n4C)n2)cn1 [Formula (Ia)]
- Fold Selectivity Compared to TRPA1 (hNaV1.2): >100 fold
- IC50 (hNaV1.2; Voltage, Peak Inward (0 mV)): > 10 µM
- airway hyper-responsiveness (PC400), relative to baseline ([1]; 5 mg/kg PO): 100%
- airway hyper-responsiveness (PC400), relative to baseline ([1]; 10 mg/kg PO): 100%
- IC50 (hTRPA1): 5.3 µM
